Test results as given in patent US6025142A, “Hydrophobic u-PAR binding site” (Boehringer Mannheim GmbH, priority 1994, dated 2000).

Legend:
[1] = target: T1, u-PAR (Homo sapiens, UniProt Q03405); assay: protease cleavage of u-PAR monitored by ANS fluorescence; assay type: biochemical
T1 construct: made in house; host or cells: Chinese hamster ovary (CHO) cells, conditioned media
Description: Fluorescence measurements. […] All fluorescence measurements were made using 2 μM u-PAR and 10 μM ANS in PBS at 25° C. unless otherwise stated.

[2] = target: T1, u-PAR; assay: fluorescence titration of u-PAR with ANS (Scatchard); assay type: binding; settings: intact u-PAR
Description: ANS titration. The stoichiometry and affinity of ANS binding to u-PAR was determined by titrating fixed concentrations of u-PAR with ANS up to a concentration of 100 μM. The observed fluorescence intensities were corrected for the dilution effect of the added ANS, the low background fluorescence of ANS in buffer and for the inner filter effect of the varying concentration of ANS. The latter was performed using the relationship
where ε386 is the molar extinction coefficient of ANS at half the path length of the fluorescence cuvette, ANSo is the total ANS concentration, and Fobs and Fcorr are the observed and corrected fluorescence intensities. The concentration of bound ANS was determined from the relationship
where Fmax is the theoretical fluorescence of a molar solution if all were bound to u-PAR. This parameter was calculated by titration of a protein concentration sufficiently high to ensure that essentially all added ANS is bound in the initial linear part of the binding curve. The data generated in this way were analyzed by the method of Scatchard.

[3] = target: complement component C3b; settings: Isenman, 1983; read-out: Kd of ANS binding to complement component C3b; cited from earlier work
[4] = target: apohemoglobin; settings: Stryer, 1965; read-out: Kd of ANS binding to apohemoglobin; cited from earlier work

T1 sequence (Q03405 23-299): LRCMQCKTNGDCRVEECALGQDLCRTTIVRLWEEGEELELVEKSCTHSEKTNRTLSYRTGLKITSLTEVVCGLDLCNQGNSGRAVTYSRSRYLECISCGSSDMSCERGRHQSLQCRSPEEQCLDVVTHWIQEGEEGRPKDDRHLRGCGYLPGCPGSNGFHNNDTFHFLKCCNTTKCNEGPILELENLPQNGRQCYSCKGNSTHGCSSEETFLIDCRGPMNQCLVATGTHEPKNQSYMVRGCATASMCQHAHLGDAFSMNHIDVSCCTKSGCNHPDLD

| reduction in the ANS fluorescence after cleavage of intact u-PAR [1] [%] | Molecule | enhancement of ANS fluorescence intensity on binding to u-PAR [2] [fold] | stoichiometry of ANS binding [2] [moles/mole u-PAR] | Kd ([2]; PBS, 25° C., read-out: dissociation constant of ANS binding to u-PAR) [µM] | Kd [3] [µM] | Kd [4] [µM] |
| --- | --- | --- | --- | --- | --- | --- |
| 75 | chymotrypsin |  |  |  |  |  |
|  | O=S(=O)(O)c1cccc2cccc(Nc3ccccc3)c12 [ANS, 8-anilino-1-naphthalene sulfonic acid] | > 10 | 1.09±0.17 | 33.8 ± 3.2 | 40 | 55 |
